One molecule from article PMC4222603, “Dual inhibition of HIV-1 replication by integrase-LEDGF allosteric inhibitors is predominant at the post-integration stage” (Retrovirology, 2013) can be followed below.

SMILES strings stand for the structures. Like-named read-outs stand apart in the source and are kept apart here.

In assay [1] the test system is panel of virus mutants in an NL4-3 background resistant to INSTIs and other classes of ARV drugs. The conditions noted are these: EC50 on resistant virus / EC50 on wt.
Assay [2] has as its target T1, IN strand transfer activity (Human immunodeficiency virus type 1 group M subtype B, UniProt P12497).
T1 construct: loaded on a Superdex 200 16/600 PG column (for full length IN); made in house
Kind of assay: IN strand transfer ELISA assay. In kind it is biochemical, HIV-1. Here is the method:
IN strand transfer ELISA assay has been adapted from. […] 16 μL of IN mixture (20 mM HEPES pH 7.5, 10 mM MgCl2, 1 mM DTT, 0.50 μM His6-IN) was added. […] The reaction was stopped by addition of 60 μL stop mixture (20 mM Tris–HCl pH 7.6, 0.4 M NaCl, 10 mM Na2EDTA, 0.1 mg/mL salmon sperm DNA) and the volume transferred to Reacti-Bind high-binding capacity streptavidin-coated white plates (Thermo Scientific Pierce). After 1 h incubation at room temperature under gentle shaking, integrase and unjoined DNA were removed by three washes with 200 μL wash solution 1 (30 mM NaOH, 0.2 M NaCl, 1 mM Na2EDTA). 100 μL of 2000-fold diluted HRP-conjugated anti-DIG Fab (Roche Applied Science) was added and the plate was incubated for 1 h at 37°C. Unbound antibody was removed with wash solution 2 (PBS pH 7.4, 0.05% Tween-20, 0.1% bovine serum albumin), 100 μL of SuperSignal Femto ELISA substrate (Thermo Scientific Pierce) was added and chemiluminescence was immediately read in a PHERAstar Plus with LUM-plus module. The signal, converted to % inhibition, was analyzed by fitting a sigmoidal dose–response curve to determine IC50 and the inhibition plateau.

The target of another assay is viral protease (Human immunodeficiency virus type 1 group M subtype B, UniProt P12497). Briefly: Viral protease inhibition (unpublished data). Type of assay: biochemical, HIV-1.
The next assay deals with T2, IN NL4-3 wt (Human immunodeficiency virus type 1 group M subtype B, UniProt P12497).
T2 construct: loaded on a Superdex 200 16/600 PG column (for full length IN); made in house
Also noted: species or system HIV-1. The conditions noted are these: pre-incubation with 100 μM compound.

In a further assay the test system is HIV-1 NL4-3. Briefly: Antiviral assay in MT-4 cells, multiple-round infection, CellTiter-Glo. In kind it is cell-based. Here is the method:
MT-4 cells growing exponentially at the density of 10^6/mL were infected with HIV-1 strain NL4-3 at a MOI (multiplicity of infection) of 0.001 for 2 h. The cells were washed with PBS and aliquoted, using 100 μL fresh complete RPMI, into 96-well white plates (Corning) in the presence of different concentrations of compounds.
(In general: Cellular ATP, detected with luciferase, serves as a proxy for viable cell number.)

For the next assay, the system named is HIV-1 NL4-3 wt. In kind it is cell-based.
Assay [3] has as its system HIV-1 LAV virions produced by HeLa-LAV cells. Briefly: Virions produced by compound-treated HeLa-LAV cells: p24 and infectivity. Type of assay: cell-based.

The IC50 is the concentration that inhibits the measured activity by half. For orientation: EC50 means the concentration at which the effect is half-maximal.

Experimental for IN NL4-3 wt: SEC was performed with a Superdex 200 10/300 GL column (GE Healthcare) using a flow-rate of 0.4 mL/min in buffer containing 50 mM HEPES, pH 7.5, 1 M NaCl, 7 mM CHAPS, 5 mM MgCl2, 10 mM DTT, 10% glycerol at room temperature. […] Protein elution was monitored at 280 nm.

Take `Cc1nc2c(c(-c3ccc4c(c3)CCCO4)c1C(OC(C)(C)C)C(=O)O)CCCC2` (stereo not drawn) [Mut101, 2-(tert-butoxy)-2-[4-(3,4-dihydro-2H-1-benzopyran-6-yl)-2-methyl-5,6,7,8-tetrahydroquinolin-3-yl]acetic acid]: the “EC50 fold change (FC) ratio against all resistant viruses” value in assay [1] is listed as at most 1. The IC50 in assay [2] (Table 1, ELISA, read-out: IN ST IC50) came out at 170 nM. In addition, the “IN ST plateau (%)” value in assay [2] (inhibition plateau, concentrations up to 100 μM) was 66%. Moreover, the “Inhibition of viral protease” value on viral protease is listed as “does not inhibit viral protease”. The “Effect on IN wt oligomerization state (SEC)” value on IN NL4-3 wt is reported as “higher IN oligomerization state”. In addition, the EC50 in the assay on HIV-1 NL4-3 (Human immunodeficiency virus 1, NL43, MT4, Table 1, read-out: NL4-3 EC50 (MT4 assays)) is 540 nM; in the assay with HIV-1 NL4-3 (Human immunodeficiency virus 1, NL43, MT4, Table 3, mean of two independent experiments, read-out: EC50 NL4-3 WT), 470 nM; in the assay on HIV-1 NL4-3 (Human immunodeficiency virus 1, NL43, MT4 cells, mean of six independent experiments, read-out: NL4-3 EC50 Multiple-round), 490 ± 40 nM. Also, the “Infectivity of NL4-3 wt virus produced in presence of compound” value with HIV-1 NL4-3 wt was “inactivated”. In addition, the “Virucidal effect on free virus released in supernatant” value in assay [3] is listed as “unable to inactivate free virus”. Also, the “Amount of p24 produced by treated HeLa-LAV cells” value in assay [3] (compared with Raltegravir, DMSO or Mut063 treatment) is listed as “comparable”. Moreover, in assay [3] (luciferase assay in TZM cells), the “Infectivity of virions from treated HeLa-LAV cells” value is on record as “strong virus infectivity defects”.
